Experimental data reported in US9611453B2, “Micromechanical devices for control of cell-cell interaction, and methods of use thereof” (The Regents of the University of California, priority 2007, dated 2017).

Columns and labels:
3T3 fibroblasts = experiment: Viability assay of hepatocyte / 3T3 fibroblast co-culture after drug exposure, populations separated on micromechanical substrates; format: cell-based, murine
Excerpt: FIG. 13 depicts population-specific readout or selective interrogation. Hepatocytes and 3T3 fibroblasts are co-cultured to maintain hepatocyte differentiation. In (A) the drug Pyrilamine is introduced while the cells are in co-culture. By using the micromechanical substrates, the two cell populations are separated prior to viability assay, allowing the viability of each cell type to be assessed independently. […] In (B) the effect of the drug Methapyrilamine is compared when the cells are in co-culture or when the 3T3 are alone.
In another embodiment, in addition to the selective stimulation described above, one can separate a subpopulation of cells from a culture in order to assay those cells specifically; this is known as selective interrogation. One example of selective interrogation is shown in FIG. 11, where SEC cells are separated out from a culture of many cell types, and a Western Blot is performed on the purified SEC population. Another example is in FIG. 15, where hepatocytes and 3T3 fibroblasts are separated before viability assays are performed on each population.

[1] = system: liver sinusoidal endothelial cells (LSEC); experiment: SE-1 expression of cultured LSEC (immunohistochemistry and Western blotting); format: cell-based; conditions: primary rat LSEC cultured in the presence of OV, day 3
Procedure: For example, immunohistochemistry and Western blotting were used to characterize expression of the specific EC markers RECA, SE-1, PECAM and AcLDL in isolated primary rat LSECs were cultured under the following conditions: a) on the different ECM proteins including, Collagen-I, Fibronectin, Laminin, and Collagen-IV; b) with various combinations of supportive cells, using the micromechanical reconfigurable culture method described herein to enable tracking of individual cell types, separation into pure populations for analysis, and deconvolution of contact-mediated versus soluble signals; and c) in the presence of the tyrosine phosphatase inhibitor, orthovanadate (OV).
In addition, the co-culture of LSEC with hepatocytes or fibroblast-stabilized hepatocytes induced LSEC proliferation as well as the activation of the transcription factor STAT-1.

LSEC = conditions: previously demonstrated (Fujimoto, H. et al. 2006); cited from earlier work

For `COc1ccc(CN(CCN(C)C)c2ccccn2)cc1` [Pyrilamine], the “sensitivity to the toxic effects (viability), 3T3 versus hepatocytes” value (3T3 fibroblasts; drug introduced while hepatocytes and 3T3 are in co-culture, populations separated prior to viability assay, FIG. 13A) was 3T3 are shown to be more sensitive.
In the case of `[O]=[V]([O-])([O-])[O-]` [OV, orthovanadate], the SE-1 expression [1] is given as “strongly maintaining” and the LSEC apoptosis (LSEC) is given as “inhibited LSEC apoptosis”.
For `CN(C)CCN(Cc1cccs1)c1ccccn1` [Methapyrilamine], the “sensitivity of 3T3 to the toxic effects, co-culture versus 3T3 alone” value (3T3 fibroblasts; 3T3 in co-culture with hepatocytes or alone, FIG. 13B) was “more sensitive to the toxic effects of the drug when alone”.
